Here are results for eight compounds from patent publication US6037348A (priority 1997, dated 2000).

For orientation: CC50 means the concentration at which the toxic effect on the cells reaches its halfway point. A higher CC50 goes with better tolerance by the cells.

The nature of one series: in vitro. The settings on record: bovine, mdbk cells.
A further series has as its system BVDV. The experiment in a line: microbe, parasite or virus in culture. The class given is cell-based, bovine diarrheal virus (BVDV). The settings on record: Bovine viral diarrhea virus isolates and strains, MDBK, in Bos taurus.
The subject of a further series is M2 ion channel. The settings on record: influenza A; cited from earlier work.
The next series relates to B/Maryland. Kind of series: Antiviral plaque assay, B/Maryland. Format: cell-based. The settings on record: Influenza B virus, MDCK cells. As for the experimental part:
(§1) The in vitro anti-influenza activities of COMPOUND A, COMPOUND B, COMPOUND C and amantadine were evaluated using a standard plaque assay such as described in Hayden et al., Antimicrob. Agents Chemother., vol. 17, pages 865-870, (1980), herein incorporated by reference. In this assay, influenza virus-infected Madin Darby canine kidney (MDCK) cells were untreated or treated with serial dilutions of each compound. The concentration of compound required to inhibit viral plaque formation by 50% (IC50) was determined from the linear regression line of the plot of compound concentration versus percent inhibition of plaque formation. In addition, the IC50 can be determined by the method of Reed and Muench, Am. J. Hyg, vol. 27, 493-497 (1938) which is herein incorporated by reference.

For a further series, the system named is B/GL. The experiment in a line: Antiviral plaque assay, B/GL. The note with it: Influenza B virus, MDCK cells. The class given is cell-based. As for the experimental part:
as §1

The subject of series [1] is influenza A/Kawasaki (A/KAW H1N1). The experiment in a line: Antiviral plaque assay, A/KAW H1N1. The settings on record: MDCK cells. The procedure: as §1
The subject of the next series is B/Lee. Kind of series: Antiviral plaque assay, B/Lee. Format: cell-based. The note with it: Influenza B virus, MDCK cells. As for the experimental part:
as §1

A further series relates to A/AA H2N2. The experiment in a line: microbe, parasite or virus in culture. The note with it: H2N2, MDCK.
The next series deals with A/FM/1/47 H1N1. Kind of series: Antiviral plaque assay, A/FM/1/47 H1N1. The note with it: MDCK cells. The procedure: as §1
Another series relates to A/NWS H1N1. Kind of series: Antiviral plaque assay, A/NWS H1N1. The note with it: MDCK cells. As for the experimental part:
as §1

The next series deals with A/AICHI H3N2. Kind of series: Antiviral plaque assay, A/AICHI H3N2. The note with it: MDCK cells. The procedure: as §1
Another series has as its system infectious virions. The arrangement: species or system influenza virus.
Setting [2] is: read-out: IC50 (virus replication inhibited by 50%).

Structures are written as SMILES. ≈ marks a conversion by molar mass, not a printed value. Like-named read-outs stand apart in the source and are kept apart here.

Take `COC(=O)[C@@]1(C)CCC[C@@]2(C)C1=CC(=NO)c1ccc(OC)cc12` [J]: the 50% cytotoxic concentration (CC50) in “in vitro” worked out at 30.8 µg/mL (≈ 93.4 µM). Besides, the IC50 is 8.9 µg/mL (≈ 27 µM) in the series with BVDV (read-out: IC50) and 5.25 µg/mL (≈ 15.9 µM) in the series with BVDV (setting [2]).
As for `COC(=O)C1(C)CCCC2(C)c3ccccc3C(=O)CC12` (centres unmarked) [K], in the series “in vitro”, the cytotoxic concentration (CC50) was over 100 µg/mL. Moreover, the IC50 in the series with BVDV (read-out: IC50) was found to be 51 µg/mL (≈ 178 µM); in the series on BVDV (setting [2]), 15 µg/mL (≈ 52.3 µM).
Turning to `CC(N)C12CC3CC(CC(C3)C1)C2` (centres unmarked) [rimantadine], in the series on M2 ion channel, the “function of the M2 ion channel activity” value is listed as “inhibiting the function of the M2 ion channel activity”.
As for `NC12CC3CC(CC(C3)C1)C2` [Amantadine, amantadine, reference compound], the IC50 in the series with B/Maryland is over 10 µg/mL; in the series on B/GL, over 10 µg/mL; in series [1] it was 0.036 µg/mL (≈ 0.238 µM); with B/Lee it was over 10 µg/mL; in the series on A/AA H2N2, 0.037 µg/mL (≈ 0.245 µM); with A/FM/1/47 H1N1, 0.13 µg/mL (≈ 0.859 µM). The IC50 was over 10 µg/mL in the series on A/NWS H1N1 and 0.076 µg/mL (≈ 0.502 µM) in the series with A/AICHI H3N2. Besides, the “function of the M2 ion channel activity” value in the series on M2 ion channel is listed as “inhibiting the function of the M2 ion channel activity”.
`COC(=O)[C@@]1(C)CCC[C@]2(C)c3cc(OC)ccc3C(=O)C[C@@H]12` [COMPOUND A]: the “effect on expression of HA on the infected cell surface (erythrocyte binding)” value in the series on HA of A/Kawasaki/86 is on record as “no effect”. The “low pH-induced fusion of MDCK cells with human erythrocytes” value with HA of A/Kawasaki/86 (pH 4.8) was “inhibition of the low pH-induced fusion”. In addition, the IC50 with B/Maryland is about 2.7 µg/mL (≈ 8.53 µM); in the series on B/GL, 5.65 µg/mL (≈ 17.9 µM); in series [1] it was under 0.032 µg/mL; with B/Lee, about 1.23 µg/mL (≈ 3.89 µM); in the series on A/AA H2N2 it was under 0.032 µg/mL; in the series with A/FM/1/47 H1N1, under 0.032 µg/mL. In addition, the IC50 in the series with BVDV (read-out: IC50) is 13.5 µg/mL (≈ 42.6 µM); in the series on BVDV (setting [2]) it was 3.56 µg/mL (≈ 11.3 µM); in the series with BVDV (read-out: concentration inhibiting replication by 50%), 3.5 µg/mL (≈ 11.1 µM); with A/NWS H1N1, over 10 µg/mL; in the series with A/AICHI H3N2 it was about 10 µg/mL (≈ 31.6 µM). The CC50 in “in vitro” amounted to 51.8 µg/mL (≈ 164 µM). Also, in the series with infectious virions, the “antiviral activity after pre-incubation with infectious virions” value was “inactive”. Moreover, the “susceptibility of A/WSN/33” value in the series with influenza A/WSN/33 is given as “naturally resistant”. For the same compound, the IC90 with BVDV (read-out: concentration inhibiting replication by 90%) stood at 13.4 µg/mL (≈ 42.4 µM). The “effect on fusion of human erythrocytes with A/WSN/33-infected MDCK cells” value with HA of A/WSN/33 is reported as “no effect”.
Regarding `O=C(NCC(c1ccccc1)c1ccncc1)Nc1ccccc1Cl` (centres unmarked) [COMPOUND B], the IC50 was about 2.23 µg/mL (≈ 6.34 µM) in the series on B/Maryland; 2.83 µg/mL (≈ 8.04 µM) in the series on B/GL; 0.024 µg/mL (≈ 0.0682 µM) in series [1]; about 1.08 µg/mL (≈ 3.07 µM) in the series with B/Lee; 0.15 µg/mL (≈ 0.426 µM) in the series with A/AA H2N2; 0.18 µg/mL (≈ 0.512 µM) in the series on A/FM/1/47 H1N1. The values for the IC50 in the series on A/NWS H1N1 and with A/AICHI H3N2 were about 9.59 µg/mL (≈ 27.3 µM) and about 7.26 µg/mL (≈ 20.6 µM), respectively.
In the series “in vitro”, `COC(=O)C1(C)CCCC2(C)c3ccc(O)cc3C(=O)CC12` (centres unmarked) [Compound I] came in with a CC50 of 32 µg/mL (≈ 106 µM). For the same compound, the IC50 in the series with BVDV (read-out: IC50) was 16 µg/mL (≈ 53 µM); in the series on BVDV (setting [2]), 4.94 µg/mL (≈ 16.3 µM).
With `O=C(O)CCC1(c2ccccc2)CCCCC1` [COMPOUND C], the IC50 was 6.34 µg/mL (≈ 27.3 µM) in the series with B/Maryland; over 10 µg/mL in the series with B/GL; 0.07 µg/mL (≈ 0.301 µM) in series [1]; over 10 µg/mL in the series with B/Lee; 0.069 µg/mL (≈ 0.297 µM) in the series on A/AA H2N2; 0.15 µg/mL (≈ 0.646 µM) with A/FM/1/47 H1N1. Moreover, the IC50 in the series on A/NWS H1N1 is over 10 µg/mL; with A/AICHI H3N2, about 10 µg/mL (≈ 43 µM).
